Converted amounts (≈) assume the structure as drawn. Structures can show the parent of a compound that is named as a salt.

This data set can be described thus: physchem.

Consider `O=C(O)c1ccc(-c2ccnc(Nc3ccccc3)n2)cc1C1CCCC1` [compound 62, 2-Cyclopentyl-4-(2-(phenylamino)pyrimidin-4-yl)benzoic Acid Hydrochloride], for which the solubility (usually the concentration that dissolves in the medium under given conditions) stood at 19.4 µg/mL. The value for `O=C(O)c1ccc(-c2ccncn2)cc1C1CCCC1` [compound 56, 2-Cyclopentyl-4-(pyrimidin-4-yl)benzoic Acid] was 10.6 µg/mL (≈ 39.5 µM); that for `O=C(O)c1ccc2c3c1cccc3c(=O)n1c3ccccc3nc21` [STO-609, 7-oxo-7H-benzimidazo[2,1-a]benz[de]isoquinoline-3-carboxylic acid, reference compound] was 60 µg/mL (≈ 191 µM).

The record behind these values is PMC8365604 (Journal of Medicinal Chemistry, 2021).
